Key:
primary B-ALL cells = assay: Phosphorylated Akt and Erk1/2 in primary B-ALL cells (Western blot); format: cell-based, human; details: 72 h
Description: Figure 6 X-370-sensitive human primary B-ALL cells contained PI3K-dependent Erk1/2 phosphorylation and combination of AZD6244 and X-370 enhanced inhibitory activity against resistant specimens (A) X-370-sensitive human primary B-ALL cells contained PI3K-dependent Erk1/2 phosphorylation. Primary B-ALL cells were treated with series diluted X-370 for 72 h. Phosphorylation of Akt and Erk1/2 were detected. (B). Combination of AZD6244 and X-370 enhanced inhibitory activity against resistant specimens. X-370 resistant primary B-ALL cells were treated with 1 μM X-370 alone or cocurently with MEK1/2 inhibitor AZD6244 (1 μM) for 72 h and cell viability were tested by CCK-8 assay. Cell viability of each treated group was compared with unpaired t-tests. *: P < 0.05. (C) X-370-resistant primary B-ALL cells were treated with X-370 in the presence of 1 μM AZD6244 or not for 72 h and phosphorylated Akt and Erk1/2 were then detected by Western blot.
Bone marrow was obtained from patients after provision of informed consent using guidelines approved by the Committee on the Use of Human Subjects in Research at Shanghai Jiaotong University or Shanghai Fudan University under a protocol approved by the Review Board. […] Cell viability and phosphorylated Akt and Erk1/2 were then detected.

PI3KC2γ = molecular target: T1, PI3KC2γ (Homo sapiens, UniProt O75747); assay: Kinase Profiler lipid kinase relative activity; format: biochemical; details: X-370 10 μM, compared to DMSO control
T1 construct: purchased Millipore (Kinase Profiler Services, United Kingdom)
T1 sequence (O75747 whole entry, species assumed): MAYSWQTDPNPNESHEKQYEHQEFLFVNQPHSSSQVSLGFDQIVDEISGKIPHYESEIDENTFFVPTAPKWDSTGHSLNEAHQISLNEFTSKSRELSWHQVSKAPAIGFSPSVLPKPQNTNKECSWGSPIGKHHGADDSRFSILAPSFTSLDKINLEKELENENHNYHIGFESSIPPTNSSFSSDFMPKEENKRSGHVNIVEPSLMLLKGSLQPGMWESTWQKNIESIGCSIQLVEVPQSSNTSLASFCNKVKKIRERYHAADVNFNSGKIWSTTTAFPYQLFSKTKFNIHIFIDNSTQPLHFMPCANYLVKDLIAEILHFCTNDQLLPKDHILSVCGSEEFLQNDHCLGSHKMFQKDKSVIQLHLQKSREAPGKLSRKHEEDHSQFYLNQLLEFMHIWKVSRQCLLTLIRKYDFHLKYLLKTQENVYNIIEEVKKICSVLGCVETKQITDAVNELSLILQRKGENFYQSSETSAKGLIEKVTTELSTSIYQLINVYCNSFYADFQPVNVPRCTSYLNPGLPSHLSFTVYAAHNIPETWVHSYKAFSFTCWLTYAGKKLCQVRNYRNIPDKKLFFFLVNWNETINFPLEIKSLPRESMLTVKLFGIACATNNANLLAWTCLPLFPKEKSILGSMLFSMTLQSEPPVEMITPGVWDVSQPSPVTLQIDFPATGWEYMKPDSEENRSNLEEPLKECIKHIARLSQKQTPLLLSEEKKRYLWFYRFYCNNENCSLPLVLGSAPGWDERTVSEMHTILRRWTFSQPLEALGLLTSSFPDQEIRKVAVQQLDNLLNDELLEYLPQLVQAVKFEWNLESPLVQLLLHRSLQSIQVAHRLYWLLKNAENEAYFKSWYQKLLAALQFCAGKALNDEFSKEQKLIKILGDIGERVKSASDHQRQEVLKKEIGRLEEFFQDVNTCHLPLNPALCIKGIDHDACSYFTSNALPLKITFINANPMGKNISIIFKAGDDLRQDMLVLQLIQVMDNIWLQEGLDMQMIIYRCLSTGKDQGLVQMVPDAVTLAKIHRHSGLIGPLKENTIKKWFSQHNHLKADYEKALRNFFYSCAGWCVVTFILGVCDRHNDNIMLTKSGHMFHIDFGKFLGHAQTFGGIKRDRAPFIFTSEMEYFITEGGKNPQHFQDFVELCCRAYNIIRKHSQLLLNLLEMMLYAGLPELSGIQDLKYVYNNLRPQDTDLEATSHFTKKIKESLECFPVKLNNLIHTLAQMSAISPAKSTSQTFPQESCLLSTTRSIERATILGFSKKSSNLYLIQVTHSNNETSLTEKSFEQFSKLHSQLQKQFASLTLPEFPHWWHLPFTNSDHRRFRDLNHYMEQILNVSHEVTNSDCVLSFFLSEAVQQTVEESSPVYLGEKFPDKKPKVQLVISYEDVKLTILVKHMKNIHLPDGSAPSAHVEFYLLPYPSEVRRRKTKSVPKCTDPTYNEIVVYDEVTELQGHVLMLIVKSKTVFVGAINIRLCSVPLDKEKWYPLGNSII
Description: (§1) Figure 1 Structure of X-370 and its inhibitory activity against lipid kinases (A) Chemical structure of X-370. (B) X-370 docked to the crystal structure of PI3Kδ. The model was generated based on the co-crystal structure of PI3Kδ and ZSTK474 (PDB ID: 2WXL). (C) IC50 of X-370 against PI3Kδ increased along with ATP concentration. […] Data was obtained from Kinase Profiler Services (Millipore, United Kingdom). Briefly, X-370 was solved in DMSO at a concentration of 10 mM, 10-point kinase inhibitory activity was measured over concentrations in a half-log dilution series started at 1000 nM with ATP at a concentration consistent with Km of each isoform of class I PI3K and IC50s were calculated. Relative kinase activity in the presence of 10 μM X-370 compared to DMSO control was measured for the rest of lipid kinases. TEXT PRINTED IN THE PICTURE: (D) X-370: IC50 (nM): 7 (Isoform: PI3Kδ); IC50 (nM): 433 (Isoform: PI3Kα); IC50 (nM): >1,000 (Isoform: PI3Kγ); IC50 (nM): >1,000 (Isoform: PI3Kβ); Relative Activity (%) X-370 (10 μM): 55 (Lipid Kinases: PI3KC2α); Relative Activity (%) X-370 (10 μM): 63 (Lipid Kinases: PI3KC2γ); Relative Activity (%) X-370 (10 μM): 105 (Lipid Kinases: PIP4K2α); Relative Activity (%) X-370 (10 μM): 100 (Lipid Kinases: PIP5K1α); Relative Activity (%) X-370 (10 μM): 103 (Lipid Kinases: PIP5K1γ) DOUBTS OF THE COPYIST ABOUT THIS PICTURE: Panel D, left table (Isoform / IC50): no substance label is printed in this table; assigned to X-370, the only label printed in the panel (head of the right table)
(§2) In vitro kinase profile assays were analyzed by the Kinase Profiler Service (Millipore, United Kingdom) following its guidelines. A GST-tagged human p110δ and regulatory full-length p85 were co-expressed in insect cell Sf9. Recombinant protein was extracted by affinity purification. The PI3K kinase activity was determined in the increasing concentration of ATP and X-370 with PI3-Kinase HTRF™ Assay kit (Millipore) as described previously.

PIP5K1α = molecular target: T2, PIP5K1α (Homo sapiens, UniProt Q99755); assay: Kinase Profiler lipid kinase relative activity; format: biochemical; details: X-370 10 μM, compared to DMSO control
T2 construct: purchased Millipore (Kinase Profiler Services, United Kingdom)
T2 sequence (Q99755 whole entry, species assumed): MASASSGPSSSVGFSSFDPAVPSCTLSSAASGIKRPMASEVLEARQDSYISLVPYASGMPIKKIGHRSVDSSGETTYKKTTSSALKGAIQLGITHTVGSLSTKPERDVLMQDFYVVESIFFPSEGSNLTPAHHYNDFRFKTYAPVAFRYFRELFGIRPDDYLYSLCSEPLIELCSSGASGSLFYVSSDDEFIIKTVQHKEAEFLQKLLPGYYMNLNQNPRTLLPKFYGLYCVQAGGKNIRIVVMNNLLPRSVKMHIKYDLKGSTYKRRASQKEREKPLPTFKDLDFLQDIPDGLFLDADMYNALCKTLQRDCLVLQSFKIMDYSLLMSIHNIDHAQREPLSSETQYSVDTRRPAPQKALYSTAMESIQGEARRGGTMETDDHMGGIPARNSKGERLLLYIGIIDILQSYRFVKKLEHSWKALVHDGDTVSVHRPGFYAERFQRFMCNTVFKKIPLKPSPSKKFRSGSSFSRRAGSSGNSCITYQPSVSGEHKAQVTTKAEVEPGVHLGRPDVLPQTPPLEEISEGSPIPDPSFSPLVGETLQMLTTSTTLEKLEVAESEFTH
Description: as §1, §2

PI3KC2α = molecular target: T3, PI3KC2α (Homo sapiens, UniProt O00443); assay: Kinase Profiler lipid kinase relative activity; format: biochemical; details: X-370 10 μM, compared to DMSO control
T3 construct: purchased Millipore (Kinase Profiler Services, United Kingdom)
T3 sequence (O00443 whole entry, species assumed): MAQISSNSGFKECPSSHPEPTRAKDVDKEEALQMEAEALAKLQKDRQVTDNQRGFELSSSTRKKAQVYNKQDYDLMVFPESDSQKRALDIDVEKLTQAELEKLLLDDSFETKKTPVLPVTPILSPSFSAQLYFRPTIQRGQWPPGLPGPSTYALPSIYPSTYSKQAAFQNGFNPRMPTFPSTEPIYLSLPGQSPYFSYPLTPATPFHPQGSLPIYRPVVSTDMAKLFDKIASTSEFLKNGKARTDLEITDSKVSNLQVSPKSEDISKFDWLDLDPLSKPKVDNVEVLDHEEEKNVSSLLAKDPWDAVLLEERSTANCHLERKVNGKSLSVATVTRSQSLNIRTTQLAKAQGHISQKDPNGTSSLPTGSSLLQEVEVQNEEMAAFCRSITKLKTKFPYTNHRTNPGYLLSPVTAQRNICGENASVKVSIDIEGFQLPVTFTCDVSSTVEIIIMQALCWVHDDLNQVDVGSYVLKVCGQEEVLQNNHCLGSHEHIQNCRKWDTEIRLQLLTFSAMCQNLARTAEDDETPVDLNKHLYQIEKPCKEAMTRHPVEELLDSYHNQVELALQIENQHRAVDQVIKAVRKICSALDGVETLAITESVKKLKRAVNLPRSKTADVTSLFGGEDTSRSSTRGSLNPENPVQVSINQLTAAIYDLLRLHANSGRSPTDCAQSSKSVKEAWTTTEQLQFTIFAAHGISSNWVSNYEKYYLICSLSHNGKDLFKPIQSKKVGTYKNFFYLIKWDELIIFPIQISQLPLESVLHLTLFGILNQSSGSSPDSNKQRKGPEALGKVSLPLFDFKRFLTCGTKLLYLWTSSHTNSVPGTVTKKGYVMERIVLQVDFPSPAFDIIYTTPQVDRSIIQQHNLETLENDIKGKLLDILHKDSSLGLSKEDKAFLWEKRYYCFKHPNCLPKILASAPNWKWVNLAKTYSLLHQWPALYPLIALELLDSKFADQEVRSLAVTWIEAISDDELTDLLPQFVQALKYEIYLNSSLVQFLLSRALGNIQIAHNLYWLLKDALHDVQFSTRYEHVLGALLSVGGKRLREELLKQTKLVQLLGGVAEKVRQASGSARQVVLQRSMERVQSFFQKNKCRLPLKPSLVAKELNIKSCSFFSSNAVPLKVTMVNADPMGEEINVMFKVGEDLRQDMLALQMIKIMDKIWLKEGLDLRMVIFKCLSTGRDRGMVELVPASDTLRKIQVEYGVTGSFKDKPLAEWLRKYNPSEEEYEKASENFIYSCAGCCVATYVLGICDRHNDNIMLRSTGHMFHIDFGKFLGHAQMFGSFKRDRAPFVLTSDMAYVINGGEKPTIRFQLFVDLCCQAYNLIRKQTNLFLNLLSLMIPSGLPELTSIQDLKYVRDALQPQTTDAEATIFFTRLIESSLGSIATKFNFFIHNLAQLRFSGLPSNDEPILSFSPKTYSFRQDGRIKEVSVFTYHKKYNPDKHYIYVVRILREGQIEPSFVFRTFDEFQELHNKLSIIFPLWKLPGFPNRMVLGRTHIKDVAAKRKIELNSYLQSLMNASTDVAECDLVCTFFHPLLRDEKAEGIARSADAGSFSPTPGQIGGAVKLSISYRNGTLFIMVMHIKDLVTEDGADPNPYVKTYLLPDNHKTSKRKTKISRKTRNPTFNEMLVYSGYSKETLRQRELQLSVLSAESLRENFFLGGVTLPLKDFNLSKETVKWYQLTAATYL
Description: as §1, §2

PIP5K1γ = molecular target: T4, PIP5K1γ (Homo sapiens, UniProt O60331); assay: Kinase Profiler lipid kinase relative activity; format: biochemical; details: X-370 10 μM, compared to DMSO control
T4 construct: purchased Millipore (Kinase Profiler Services, United Kingdom)
T4 sequence (O60331 whole entry, species assumed): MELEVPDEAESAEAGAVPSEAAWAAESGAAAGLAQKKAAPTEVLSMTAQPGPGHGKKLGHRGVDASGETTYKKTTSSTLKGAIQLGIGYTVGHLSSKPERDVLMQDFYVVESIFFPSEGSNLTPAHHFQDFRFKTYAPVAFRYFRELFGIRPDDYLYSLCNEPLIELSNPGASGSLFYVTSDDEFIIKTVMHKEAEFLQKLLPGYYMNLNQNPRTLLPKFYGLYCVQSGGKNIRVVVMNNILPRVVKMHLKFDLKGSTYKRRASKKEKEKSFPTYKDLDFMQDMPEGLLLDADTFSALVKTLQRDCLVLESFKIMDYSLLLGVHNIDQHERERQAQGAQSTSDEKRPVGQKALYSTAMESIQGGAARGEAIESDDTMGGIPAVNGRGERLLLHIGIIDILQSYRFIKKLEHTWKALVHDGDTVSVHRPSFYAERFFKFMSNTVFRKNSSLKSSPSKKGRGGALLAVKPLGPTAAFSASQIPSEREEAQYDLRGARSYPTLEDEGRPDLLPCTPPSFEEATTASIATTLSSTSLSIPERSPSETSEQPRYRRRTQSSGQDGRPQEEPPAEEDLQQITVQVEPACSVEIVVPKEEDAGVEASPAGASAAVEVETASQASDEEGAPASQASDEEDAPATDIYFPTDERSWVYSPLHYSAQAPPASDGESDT
Description: as §1, §2

PIP4K2α = molecular target: T5, PIP4K2α (Homo sapiens, UniProt P48426); assay: Kinase Profiler lipid kinase relative activity; format: biochemical; details: X-370 10 μM, compared to DMSO control
T5 construct: purchased Millipore (Kinase Profiler Services, United Kingdom)
T5 sequence (P48426 whole entry): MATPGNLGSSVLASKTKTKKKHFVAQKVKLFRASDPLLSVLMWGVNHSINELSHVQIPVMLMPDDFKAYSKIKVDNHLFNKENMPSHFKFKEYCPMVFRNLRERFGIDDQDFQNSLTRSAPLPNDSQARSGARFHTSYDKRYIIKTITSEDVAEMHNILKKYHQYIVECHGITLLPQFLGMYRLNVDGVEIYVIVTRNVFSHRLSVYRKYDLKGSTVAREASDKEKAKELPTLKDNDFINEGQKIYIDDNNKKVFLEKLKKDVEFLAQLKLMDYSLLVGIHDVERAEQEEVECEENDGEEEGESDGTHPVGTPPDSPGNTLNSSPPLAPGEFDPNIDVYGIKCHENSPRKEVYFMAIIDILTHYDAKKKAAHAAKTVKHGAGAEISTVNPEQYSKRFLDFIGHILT
Description: as §1, §2

PI3Kδ = PI3Kδ (Homo sapiens, UniProt O00329); assay: PI3-Kinase HTRF assay with increasing ATP; format: biochemical; design: GST; made in house; host or cells: Sf9 insect cells; details: IC50 increasing in concert with ATP levels
Source text: Utilizing the crystal structure of PI3Kδ, we designed and synthesized a series of compounds in an effort to discover new potent and selective PI3Kδ inhibitors, which bind to PI3Kδ differently from CAL-101. […] The benzimidazole group of X-370 extends into the affinity pocket, where its nitrogen acts as a hydrogen bond acceptor for the primary amine of Lys779. The difluoromethyl group of X-370 points toward Pro758 in the hydrophobic affinity pocket. Instead of wedging between Met752 and Trp760, a binding mode utilized by CAL-101 to generate specificity against PI3Kδ (Figure S1), the pyrrole group of X-370 presses tightly against Trp760. These specific interactions of X-370 with p110δ confer a selective and potent inhibition of PI3Kδ. As expected, X-370 inhibited the kinase activity of PI3Kδ in an ATP-competitive manner, with IC50 increasing in concert with ATP levels (Figure 1C), confirming the binding of X-370 in the ATP pocket. […] More than 1000-fold selectivity was seen against other lipid kinases tested including PI3KC2α, PI3KC2γ, PIP4K2α, PIP5K1α and PIP5K1γ. […]
In vitro kinase profile assays were analyzed by the Kinase Profiler Service (Millipore, United Kingdom) following its guidelines. […] The PI3K kinase activity was determined in the increasing concentration of ATP and X-370 with PI3-Kinase HTRF™ Assay kit (Millipore) as described previously.

activity at 10 µM (PI3KC2γ): 63% | activity at 10 µM (PIP5K1α): 100% | activity at 10 µM (PI3KC2α): 55% | activity at 10 µM (PIP5K1γ): 103% | activity at 10 µM (PIP4K2α): 105% | manner of inhibition of PI3Kδ kinase activity (PI3Kδ): ATP-competitive
SMILES: O=C(N1CCCC1)N1CCC(n2cnc3c(-n4c(C(F)F)nc5ccccc54)nc(N4CCOCC4)nc32)CC1 [X-370]
phosphorylated Erk1/2 (primary B-ALL cells; resistant (IC50>1 μM) samples): remained unaffected | phosphorylated Akt and Erk1/2 (primary B-ALL cells; sensitive (IC50<1 μM) specimens, < 1 μM): dramatically decreased
